# Measured values as given in patent US6140363A, “Use of rosmarinic acid and derivatives thereof as an immunosuppressant or an inhibitor of SH2-mediated processes” (Mogam Biotechnology Research Institute, priority 1998, dated 2000).
# “Also recorded” adds a separate entry of the source. Like-named read-outs stand apart in the source and are kept apart here.
# Assays:
# Lck SH2 domain = target: T1, Lck SH2 domain (Homo sapiens, UniProt P06239); experiment: in vitro binding between Lck SH2 domain (GST fusion) and biotinylated phosphotyrosyl peptide
# T1 construct: Lck SH2 domain expressed and purified as a fusion protein with Glutathione-S-transferase; made in house
# T1 sequence (P06239 127-224 limits assumed): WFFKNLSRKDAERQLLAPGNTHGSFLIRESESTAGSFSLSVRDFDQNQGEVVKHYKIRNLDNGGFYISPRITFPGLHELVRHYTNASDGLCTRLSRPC
# Text: A novel screening system was developed in the present invention to screen a substance inhibiting the interaction between Lck SH2 domain and its ligand. In the binding assay, Lck SH2 domain expressed and purified as a fusion protein with Glutathione-S-transferase (GSI) were covalently attached to 96-well microtitre plates through amide bond formation. The immobilized proteins were subsequently allowed to bind biotinylated phosphotyrosine (Y)-containing synthetic peptide (biotin-[…]pYEEIPI) known as a high affinity ligand for the Lck SH2 domain.
# For attachment to 96-well microtitre plate, 1 μM of purified fusion protein (GST-Lck SH2) was reacted for 2 hours at room temperature. Added to the binding assay were 1 μM of the biotinylated synthetic peptide (the ligand of Lck SH2 domain) and a candidate for the inhibitor. The candidates were thousands of natural products including various kinds of Streptoryces, fungi and herbs extract. Binding reaction was performed for 2 hours at room temperature, allowing the competitive inhibition of the binding between GST-Lck SH2 and the peptide ligand. Then peroxidase-conjugated streptavidin (Pierce, USA) was added into the mixture so that added conjugates can be bound to biotinylated peptide. After unbound conjugates were washed, coloring reaction was performed to measure the activity of immobilized peroxidase, or the binding activity of the peptide to SH2 domain in the presence of the candidate added. More particularly, the coloring reaction was initiated by adding 3,3,5,5-tetramethyl benzidine (substrate) to the reaction mixture. After 30 minutes, the reaction was stopped by adding 0.8M sulfuric acid, and immediately brought to the spectrophotometry of measuring absorbance at 450 nm.
# Various concentrations (0.03~300 μg/ml) of rosmarinic acid solution, which was isolated from Prunella vulgaris or derivatives thereof, were added to the protein-coated micro-well mixed with phosphopeptide solution. The binding of biotiyated pY peptides was detected by the streptavidin-conjugated horseradish peroxidase (HRP).
# [1] = tested on: IL-2 gene expression in Jurkat T cells; experiment: TCR stimulation-induced IL-2 gene expression, IL-2-luciferase reporter system; type: cell-based; conditions: 8 μM, 30 min prior to T cell activation
# Description: The effects of rosmarinic acid and derivatives thereof on the level of IL-2 gene expression were tested by using the IL-2-luciferase reporter system, in which cultured cells were transfected with a reporter plasmid. The plasmid was constructed by fusion of the IL-2 promoter sequence with the structural gene of luciferase. […] Cells were activated by incubation for 14 h on a 35 mm dish coated with 5 μg/ml anti-CD3 antibody (UCHT1, Pharmingen) and/or anti-CD4 antibody (RPA-T4, Pharmingen) and then harvested. For PMA plus Iononycin stimulation, 5 ng/ml of PMA and 500 ng/ml of lonomycin were added to the culture media and incubated for 14 h. Luciferase activity was determined three times in duplicate for each experiment with a Berthold luminometer LB953.
# [2] = tested on: DNFB-induced contact hypersensitivity; experiment: contact hypersensitivity response to DNFB, ear thickness; type: in vivo, Balb/c female mice; conditions: intramuscular, 6 consecutive days during induction phase; rosmarinic acid 5-50 mg/kg/day
# Description: In vivo test procedure evaluating the immunosuppressive activity was performed using contact hypersensitivity response to DNEB (2,4-dinitroflourobenzene). […] This is an antigen-specific T cell-mediated inflammatory response that represents delayed-type hypersensitivity (DTH) reactions seen in both humans and other mammals. The contact sensitivity animal model is used routinely in many laboratories for pharmacological screening of anti-inflammatory agents and agents for the treatment of autoimmune diseases. […] The procedure is summarized as following. Balb/c female mice were used at 8 weeks of age. Twenty μl of 0.5% DNFB (Sigma Chemical Co.) in 4:1 diluted acetone: olive oil (Sigma Chemical Co.) was painted on each shaved abdominal skin for 2 successive days. Four days later, the mice were challenged by applying 10 μl of 0.2% DNFB in the same vehicle to each side of each ear. Cydosporin A and rosmarinic acid were treated through intramuscular administration at the indicated doses from 0 to 5 day. Ear thickness was measured using engineer's micrometer (Mitutoyo Co. Mfg. Ltd., Tokyo) 24 h after postchallenge.
# [3] = tested on: C57BL/6 tail-skin graft on Balb/c recipient mice; experiment: skin allograft rejection, survival time of skin graft; type: in vivo
# Description: In vivo procedure evaluated the survival time of a skin graft.
# Experimental allograft rejection was performed by grafting allogeneic C57BL/6 (H-2b) mouse tail-skin onto Balb/c (H-2d) recipient mice. Rosmarinic acid and derivative thereof were administered intramuscularly from the day of the transplantation until rejection. […] Full-thickness donor (C57BL/6) tail skin grafts (square pieces 2.0×2.0 cm) were transplanted onto the lateral thorax of recipient mice (Balb/C) and covered with sterile bactericidal gauze. The entire chest was then wrapped with an elastic bandage. […] Skin graft were monitored daily after the removal of the bandage on day 6. Rejection was defined as more than 90% necrosis of the graft epithelium.
# SPF SD type rat = experiment: parenteral administration test for acute toxicity; type: in vivo
# Text: Acute toxicity was examined using 6week-old SPF SD type rat. As liposomal form, I g/kg of rosmarinic acid, rosmarinyl isopropyl ester, rosmarinyl ethyl ester, (S)-rosmarinyl bis(tert-butyldimethylsilyl)ether or (S)-rosmarinic acid was intramuscularly injected into two […] per experimental group.
# Jurkat cells = experiment: intracellular calcium signaling activated by anti-CD3 and anti-CD4 antibodies (Fura-2/AM); type: cell-based; conditions: 0.5-50 μg for 10 minutes, then anti-CD3 and anti-CD4 antibodies
# Description: Fura-2/AM (Calbiochem, San Diego, Calif., USA), a fluorescent indicator of intracellular calcium, was loaded into Jurkat cells, and various amounts (0.5 μg, 1 μg, 10 μg, 50 μg) of rosmarinic acid, isolated from Prunella vulgaris, was treated to the cells for 10 minutes. The cells were treated with anti-CD3 and anti-CD4 antibodies, and then the fluctuation of intracellular calcium level was recorded by the amount of fluorescence emitted from the cells.
# [4] = tested on: IL-1β, IL-2, IL-4, IL-6 and IFN-γ mRNA; experiment: cytokine mRNA in renal allografts, semi-quantitative RT-PCR; type: in vivo, mice; conditions: renal allograft day 7, i.m. daily 7 days, rosmarinic acid 25, Cyclosporin A 50 mg/kg/day
# Text: Balb/c recipients transplanted from C57BL/6 donor were killed at 7 day after the subcapsular kidney transplantation. Renal allografts were harvested and total cellular RNA was extracted and analyzed for the expression of various cytokine mRNA. Using a serniquantitative PCR method, we temporally analyzed mRNA levels of IL-1β, IL-2, IL-4, IL-6 and IFN-γ.
# The cytokine levels of PCR products were normalized by β-actin mRNA used as a control.
# Kidney fragments (C57BL/6) were transplanted to allogeneic mice (Balb/C) using subcapsular kidney transplantation technique.
# Total RNA from the grafts was isolated using TRIZOL® LS Reagent (Life Technologies), incubated at room temperature for 15 min after addition of chloroform, extracted with phenol/chloroform, and precipitated with isopropanol. Isolated total RNA was then quantitated spectrophotometrically. Total RNA from the graft (1 μg) was performed using Titan™ One Tube RT-PCR System (BM) according to the manufacture's protocol. The PCR was done in a 50 μl volume containing 1× RT-PCR buffer with Mg^2+, 0.2 mM each dNTP(dATP, dGTP, dCTP and dTTP), 10U RNase inhibitor, enzyme mix (AMV and Expand™ High Fidelity PCR-System),5 mM DTT solution and 0.4 μM appropriate primer pair. Primer sequences for IL-2, IFN-γ, IL-4, IL-6, IL-1β and β-actin were obtained from previous reports. […] The number of amplification cycles was 25. An aliquot (15 μl) of the PCR product was electrophoresed on 2% agarose gel, and amplified DNA fragments were stained with ethidium bromide.
# [5] = 1 g/kg intramuscular, liposomal form
# [6] = GST-Lck SH2, 1 μM biotinylated pY peptide, 0.03~300 μg/ml tested, read-out: half-maximal inhibitory concentration (IC50) of binding to Lck SH2 domain (converted)
compound,measurement,setting,value
CC(C)(C)[Si](C)(C)Oc1ccc(/C=C/C(=O)O[C@@H](Cc2ccc(O)c(O)c2)C(=O)O)cc1O[Si](C)(C)C(C)(C)C [(S)-Rosmarinyl bis(tert-butyldimethylsilyl)ether],IC50,"Lck SH2 domain; read-out: half-maximal inhibitory concentration (IC50) of binding to Lck SH2 domain, GST-Lck SH2, 1 μM biotinylated pY peptide, 0.03~300 μg/ml tested",22.1 µM
same,inhibition of TCR-induced IL-2 gene expression (luciferase activity),[1],inhibited as much as rosmarinic acid
same,suppression of DNFB-induced contact hypersensitivity,[2],dose-dependent suppression
same,MST ± SD,[3]; 15 mg/kg/day i.m.,13.2 ± 1.6 days
same,"acute toxic effect (clinic symptom, weights, blood test, autopsy)",SPF SD type rat; [5],did not elicit any toxic effect
same,survival after acute dose,SPF SD type rat; [5],all tested animals were survived
O=C(/C=C/c1ccc(O)c(O)c1)O[C@@H](Cc1ccc(O)c(O)c1)C(=O)O [(S)-rosmarinic acid],IC50,Lck SH2 domain,27.8 µM
same,inhibition of TCR-induced IL-2 gene expression (luciferase activity),[1],inhibited as much as rosmarinic acid
same,suppression of DNFB-induced contact hypersensitivity,[2],dose-dependent suppression
same,MST ± SD,[3]; 15 mg/kg/day i.m.,14.8 ± 1.5 days
same,"acute toxic effect (clinic symptom, weights, blood test, autopsy)",SPF SD type rat; [5],did not elicit any toxic effect
same,survival after acute dose,SPF SD type rat; [5],all tested animals were survived
"O=C(/C=C/c1ccc(O)c(O)c1)OC(Cc1ccc(O)c(O)c1)C(=O)O (centres unmarked) [Rosmarinic acid, rosmarinic acid]",IC50,Lck SH2 domain,8.33 µM
same,inhibitory effect on intracellular calcium level,Jurkat cells,dose-dependent inhibitory effect
same,inhibition of TCR-induced IL-2 gene expression (luciferase activity),[1],more efficiently than other immunosuppressants did
same,suppression of DNFB-induced contact hypersensitivity,[2],dose-dependently suppressed
same,MST ± SD,[3]; 15 mg/kg/day i.m.,14.0 ± 1.0 days
same,MST ± SD,"[3]; 15 mg/kg/day i.m., listed as rosmarinic acid",14.0 days
same,MST ± SD,[3]; 25 mg/kg/day i.m.,18.8 ± 3.6 days
same,IFN-γ mRNA transcription in allograft transplants,[4],markedly inhibited
same,IL-1β mRNA transcription in allograft transplants,[4]; 50 mg/kg/day,markedly inhibited; also recorded: more potent activity than that of Cyclosporin A
same,IL-2 mRNA transcription in allograft transplants,[4]; 50 mg/kg/day,markedly inhibited; also recorded: more potent activity than that of Cyclosporin A
same,IL-4 mRNA transcription in allograft transplants,[4]; 50 mg/kg/day,markedly inhibited; also recorded: significantly reduced
same,IL-6 mRNA transcription in allograft transplants,[4]; 50 mg/kg/day,markedly inhibited; also recorded: significantly reduced
same,"acute toxic effect (clinic symptom, weights, blood test, autopsy)",SPF SD type rat; [5],did not elicit any toxic effect
same,survival after acute dose,SPF SD type rat; [5],all tested animals were survived
CCOC(=O)C(Cc1ccc(O)c(O)c1)OC(=O)/C=C/c1ccc(O)c(O)c1 (centres unmarked) [Rosmarinyl ethyl ester],IC50,Lck SH2 domain; [6],10.3 µM
same,inhibition of TCR-induced IL-2 gene expression (luciferase activity),[1],inhibited as much as rosmarinic acid
same,suppression of DNFB-induced contact hypersensitivity,[2],dose-dependent suppression
same,MST ± SD,[3]; 15 mg/kg/day i.m.,14.4 ± 1.8 days
same,"acute toxic effect (clinic symptom, weights, blood test, autopsy)",SPF SD type rat; [5],did not elicit any toxic effect
same,survival after acute dose,SPF SD type rat; in vivo,all tested animals were survived
CC(C)OC(=O)C(Cc1ccc(O)c(O)c1)OC(=O)/C=C/c1ccc(O)c(O)c1 (centres unmarked) [Rosmarinyl isopropyl ester],IC50,Lck SH2 domain; [6],2.49 µM
same,inhibition of TCR-induced IL-2 gene expression (luciferase activity),[1],inhibited as much as rosmarinic acid
same,suppression of DNFB-induced contact hypersensitivity,[2],dose-dependent suppression
same,MST ± SD,[3]; 15 mg/kg/day i.m.,14.2 ± 1.8 days
same,"acute toxic effect (clinic symptom, weights, blood test, autopsy)",SPF SD type rat; [5],did not elicit any toxic effect
same,survival after acute dose,SPF SD type rat; in vivo,all tested animals were survived
